The values that follow come from patent US20120258960A1, “NOVEL MULTIFUNCTIONAL PEPTIDASE INHIBITORS, ESPECIALLY FOR MEDICAL USE” (IMTM GMBH, priority 2009, published 2012).

Bounds are passed on as bounds.

Assay [1] concerns the target purified, recombinant human DPIV (Homo sapiens, UniProt P27487). The assay can be described thus: Measurement of DPIV activity (fluorogenic substrate (Ala-Pro)2-R110).
Description: The enzymatic activity of DPIV was assessed by the hydrolysis of the fluorogenic substrate bis-(L-alanyl-prolyl)-Rhodamin-110 (bis-trifluoracetate, abbreviation (Ala-Pro)2-R110). The final substrate concentration was 0.5 μM.
The assay was performed in white microtitre plates for fluorescence measurements. The test items, substrate and enzyme were diluted in assay buffer. […] As controls, the DPIV activity in the absence of test items as well as the spontaneous hydrolysis of the substrate was determined.
For assay [2], the target named is human recombinant Aminopeptidase N (Homo sapiens, UniProt P15144). The assay can be described thus: Measurement of APN activity (fluorogenic substrate (Ala)2-R110). The class given is biochemical. The following applies: human recombinant APN approx. 5 nM, substrate 0.5 μM, pH 7.5. The protocol: Inhibitory effects of test items on the enzymatic activity of human recombinant Aminopeptidase N (final concentration approx. 5 nM) were assessed by using the fluorogenic substrate bis-(L-alanyl)-Rhodamine-110 (bis-trifluoracetate, abbreviation (Ala)2-R110) at a final concentration of 0.5 μM. The assay was performed in 0.05 M TRIS/HCl buffer pH 7.5, supplemented with 0.05% Triton (v/v), 0.05% BSA (w/v), 2 mM MgCl2.
human recombinant Aminopeptidase N, sequence (P15144 whole entry): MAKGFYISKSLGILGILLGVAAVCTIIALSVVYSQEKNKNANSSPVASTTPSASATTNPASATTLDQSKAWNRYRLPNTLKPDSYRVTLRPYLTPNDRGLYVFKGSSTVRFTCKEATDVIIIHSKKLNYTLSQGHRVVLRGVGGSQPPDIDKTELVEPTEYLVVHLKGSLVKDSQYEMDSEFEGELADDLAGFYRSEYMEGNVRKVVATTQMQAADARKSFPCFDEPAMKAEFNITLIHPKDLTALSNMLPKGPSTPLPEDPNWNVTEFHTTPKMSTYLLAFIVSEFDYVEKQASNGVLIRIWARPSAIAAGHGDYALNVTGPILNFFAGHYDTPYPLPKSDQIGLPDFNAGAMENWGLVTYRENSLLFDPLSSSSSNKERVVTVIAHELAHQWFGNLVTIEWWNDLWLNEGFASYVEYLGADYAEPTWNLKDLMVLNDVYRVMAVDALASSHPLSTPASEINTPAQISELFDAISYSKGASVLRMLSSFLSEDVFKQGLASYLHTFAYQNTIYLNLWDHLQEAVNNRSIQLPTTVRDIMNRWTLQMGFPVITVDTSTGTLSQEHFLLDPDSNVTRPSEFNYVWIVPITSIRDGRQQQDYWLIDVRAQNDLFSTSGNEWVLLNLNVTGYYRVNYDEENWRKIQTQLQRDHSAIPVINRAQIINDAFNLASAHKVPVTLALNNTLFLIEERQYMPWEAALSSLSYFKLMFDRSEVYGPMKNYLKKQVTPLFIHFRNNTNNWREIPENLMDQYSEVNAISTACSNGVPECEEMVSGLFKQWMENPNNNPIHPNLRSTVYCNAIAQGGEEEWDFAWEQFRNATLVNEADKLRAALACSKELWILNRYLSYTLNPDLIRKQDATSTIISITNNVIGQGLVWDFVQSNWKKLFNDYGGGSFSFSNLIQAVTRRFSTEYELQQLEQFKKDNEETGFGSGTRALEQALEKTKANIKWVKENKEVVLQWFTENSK
The assay was performed in white microtitre plates for fluorescence measurements.
As controls, (Ala)2-R110 hydrolyzing activity in the absence of any test item as well as the spontaneous substrate hydrolysis was determined.
The release of the fluorescent hydrolysis product Rhodamine 110 was measured at an excitation wavelength of 485 nm and an emission wavelength of 530 nm by using a microtitre fluorescence reader immediately after substrate addition as well as after 30, 60 and 120 min.

purified, recombinant human DPIV, sequence (P27487 whole entry): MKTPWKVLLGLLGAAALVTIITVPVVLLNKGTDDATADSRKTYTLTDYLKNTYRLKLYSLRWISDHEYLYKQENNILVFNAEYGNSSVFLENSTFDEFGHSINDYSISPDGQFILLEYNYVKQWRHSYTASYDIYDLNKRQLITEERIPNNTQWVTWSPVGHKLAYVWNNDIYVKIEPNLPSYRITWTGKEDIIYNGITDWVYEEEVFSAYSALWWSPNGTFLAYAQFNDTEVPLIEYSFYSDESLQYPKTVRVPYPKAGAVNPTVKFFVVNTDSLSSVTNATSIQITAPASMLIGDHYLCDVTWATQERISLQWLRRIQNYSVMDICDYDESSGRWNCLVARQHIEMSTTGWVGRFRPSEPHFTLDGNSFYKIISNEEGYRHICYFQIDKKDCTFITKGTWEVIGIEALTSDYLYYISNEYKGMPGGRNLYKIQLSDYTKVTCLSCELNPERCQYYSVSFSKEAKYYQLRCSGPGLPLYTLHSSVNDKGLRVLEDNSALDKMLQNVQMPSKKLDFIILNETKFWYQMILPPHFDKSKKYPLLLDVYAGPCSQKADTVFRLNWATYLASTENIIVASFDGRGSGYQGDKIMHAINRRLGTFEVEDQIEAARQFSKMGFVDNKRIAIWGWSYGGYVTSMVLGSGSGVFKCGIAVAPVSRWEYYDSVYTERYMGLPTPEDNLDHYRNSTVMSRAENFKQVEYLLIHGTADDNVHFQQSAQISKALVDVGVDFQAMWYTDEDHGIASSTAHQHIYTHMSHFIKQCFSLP

As for `NC(CC(=O)NCCCCCCNC(=O)C(O)C(N)Cc1ccccc1)Cc1ccccc1` (stereo not drawn) [drawing 28], the IC50 – broadly, the point on the concentration scale where inhibition reaches its midpoint – amounted to 1200 nM in assay [1] and 0.41 µM in assay [2]. Turning to `NC(CC(=O)NCC1(CNC(=O)C(O)C(N)Cc2ccccc2)CCC1)Cc1ccccc1` (stereo not drawn) [drawing 29], the IC50 in assay [1] is 1670 nM; in assay [2] it was 0.191 µM. As to `CCCCCCCCCC(=O)OC(C(=O)NCC(C)(C)CNC(=O)CC(N)Cc1cc(F)ccc1F)C(N)Cc1ccccc1` (stereo not drawn) [drawing 48], the IC50 in assay [1] was 200 nM; in assay [2], greater than 50 µM. For `NC(CC(=O)NCCCCNC(=O)C(O)C(N)Cc1ccc(C(=O)O)cc1)Cc1cc(F)ccc1F` (stereo not drawn) [drawing 45] the same measures were 470 nM and greater than 50 µM. For `NC(CNC(=O)c1cccc(NC(=O)C(O)C(N)Cc2ccc(-c3cccnc3)cc2)c1)Cc1cc(F)ccc1F` (stereo not drawn) [drawing 79] the same measures were 775 nM and 0.0008 µM. Take `CCCC(=O)OC(C(=O)NCC(C)(C)CNC(=O)CC(N)Cc1cc(F)ccc1F)C(N)Cc1ccccc1` (stereo not drawn) [drawing 54]: in assay [1], the IC50 was found to be 80 nM. For `CC(C)(CCNC(=O)CC(N)Cc1cc(F)ccc1F)CNC(=O)C(O)C(N)Cc1ccccc1` (stereo not drawn) [drawing 36], the results for the IC50 in assay [1] and in assay [2] were 100 nM and greater than 50 µM, respectively.

Take `NC(CC(=O)Nc1cccc(NC(=O)C(O)C(N)Cc2ccccc2)c1)Cc1cc(F)ccc1F` (stereo not drawn) [drawing 64]: the IC50 in assay [1] is 500 nM; in assay [2], 0.35 µM. On the same counts, the results for `CCCCCCCC(=O)OC(C(=O)NCC(C)(C)CNC(=O)CC(N)Cc1cc(F)ccc1F)C(N)Cc1ccccc1` (stereo not drawn) [drawing 41] are 300 nM and 0.2 µM. On the same counts, the results for `CC(C)(CNC(=O)C(O)C(N)Cc1ccccc1)CNC(=O)C(CC(=O)O)C(N)Cc1cc(F)ccc1F` (stereo not drawn) [drawing 56] are 3700 nM and 1.4 µM. For `CCCCCCCCCCCCCC(=O)NC(CC(=O)NCC(C)(C)CNC(=O)C(O)C(Cc1ccccc1)NC(=O)CCCCCCCCCCCCC)Cc1cc(F)ccc1F` (stereo not drawn) [drawing 58], the IC50 turned out to be 5500 nM in assay [1] and 32 µM in assay [2].

As to `NC(CC(=O)NCCCCNC(=O)C(O)C(N)Cc1ccc(Br)cc1)Cc1cc(F)ccc1F` (stereo not drawn) [drawing 61], the IC50 in assay [1] was determined as 100 nM; in assay [2] it was 0.06 µM. On the same counts, the results for `CC(C)(CNC(=O)CC(CN)Cc1ccccc1)CNC(=O)C(O)C(N)Cc1ccccc1` (stereo not drawn) [drawing 34] are greater than 50000 nM and 0.15 µM. For `CCCCCCCC(=O)OC(C(=O)NCCCCNC(=O)CC(N)Cc1cc(F)ccc1F)C(N)Cc1ccccc1` (stereo not drawn) [drawing 50] the same measures were 120 nM and greater than 50 µM. On the same counts, the results for `CC(C)(CNC(=O)CC(N)Cc1cc(F)ccc1F)CNC(=O)C1OC(=O)NC1Cc1ccc(-c2ccccc2)cc1` (stereo not drawn) [drawing 69] are 40000 nM and 1.9 µM. Turning to `NC(CC(=O)NCC1(CNC(=O)C(O)C(N)Cc2ccccc2)CCC1)Cc1cc(F)ccc1F` (stereo not drawn) [drawing 57], the IC50 was determined as 100 nM in assay [1] and 0.07 µM in assay [2].

In the case of `CN(CCCNC(=O)OCc1ccccc1)C(=O)C(O)C(N)Cc1ccccc1` (stereo not drawn) [drawing 72], the IC50 in assay [1] was greater than 50000 nM; in assay [2], 11.5 µM. In the case of `CCC(CC)(CNC(=O)CC(N)Cc1cc(F)ccc1F)CNC(=O)C(O)C(N)Cc1ccccc1` (stereo not drawn) [drawing 59], the values for the half-inhibitory concentration (IC50) in assay [1] and in assay [2] were 100 nM and 0.3 µM, respectively.

Consider `NC(CC(=O)NC(CCCNC(=O)C(O)C(N)Cc1ccccc1)C(=O)O)Cc1cc(F)ccc1F` (stereo not drawn) [drawing 35], for which the IC50 in assay [1] is 200 nM; in assay [2], 6.2 µM. On the same counts, the results for `NC(CC(=O)NCCCCNC(=O)C(O)C(N)Cc1ccccc1)Cc1cc(F)ccc1F` (stereo not drawn) [drawing 25] are 80 nM and 0.14 µM. On the same counts, the results for `NC(CC(=O)NCCCNC(=O)C(O)C(N)Cc1ccccc1)Cc1cc(F)ccc1F` (stereo not drawn) [drawing 31] are 500 nM and 0.02 µM. With `NC(CC(=O)NCCCCNC(=O)C(O)C(N)Cc1ccccc1)Cc1ccccc1` (stereo not drawn) [drawing 23], the IC50 in assay [1] was determined as 2700 nM; in assay [2], 0.18 µM. With `NC(CC(=O)Nc1ccc(NC(=O)C(O)C(N)Cc2ccccc2)cc1)Cc1cc(F)ccc1F` (stereo not drawn) [drawing 39], in assay [2], the IC50 was determined as 0.02 µM. On to `NC(CC(=O)N1CCN(C(=O)CC(O)C(N)Cc2ccccc2)CC1)Cc1ccccc1` (stereo not drawn) [drawing 16], for which the IC50 in assay [1] was 900 nM; in assay [2], greater than 50 µM. On the same counts, the results for `CC(C)(CNC(=O)CC(N)C(=O)N1CCSC1)CNC(=O)C(O)C(N)Cc1ccccc1` (stereo not drawn) [drawing 30] are 2120 nM and 2 µM. For `NC(CC(=O)NCCCCNC(=O)C(O)C(N)Cc1ccccc1)C(=O)N1CCSC1` (stereo not drawn) [drawing 42] the same measures were 1700 nM and greater than 50 µM. As for `CCCCCCCCCCCCCCCC(=O)OC(C(=O)NCCCCNC(=O)CC(N)Cc1cc(F)ccc1F)C(N)Cc1ccccc1` (stereo not drawn) [drawing 53], the IC50 in assay [1] turned out to be 8000 nM.

`CC(C)(CNC(=O)CC(N)Cc1cc(F)ccc1F)CNC(=O)C(O)C(N)Cc1ccccc1` (stereo not drawn) [drawing 26]: the IC50 in assay [1] stood at 100 nM; in assay [2], 0.06 µM.

For the compound `CC(C)(CNC(=O)CC(N)Cc1ccccc1)CNC(=O)CC(O)C(N)Cc1ccccc1` (stereo not drawn) [drawing 24], the IC50 in assay [1] is 2200 nM; in assay [2], greater than 25 µM. For `NC(CC(=O)NCCCCCNC(=O)C(O)C(N)Cc1ccccc1)Cc1ccccc1` (stereo not drawn) [drawing 27] the same measures were 2670 nM and 0.12 µM.

Regarding `NC(CC(=O)NCC1(CNC(=O)C(O)C(N)Cc2ccccc2)CCCCC1)Cc1cc(F)ccc1F` (stereo not drawn) [drawing 67], the IC50 stood at 190 nM in assay [1] and 0.85 µM in assay [2]. On the same counts, the results for `CCCC(=O)NC(CC(=O)NCC(C)(C)CNC(=O)C(O)C(Cc1ccccc1)NC(=O)CCC)Cc1cc(F)ccc1F` (stereo not drawn) [drawing 38] are greater than 50000 nM and greater than 50 µM. For `NC(CC(=O)N1CCN(C(=O)C(O)C(N)Cc2ccccc2)CC1)Cc1ccccc1` (stereo not drawn) [drawing 17] the same measures were 800 nM and 27 µM. For `CC(C(=O)NCC(C)(C)CNC(=O)C(O)C(N)Cc1ccccc1)C(N)Cc1cc(F)ccc1F` (stereo not drawn) [drawing 60] the same measures were 450 nM and 0.87 µM.

As for `CCCCCCCCCCCCCCCC(=O)NC(CC(=O)NCC(C)(C)CNC(=O)C(O)C(Cc1ccccc1)NC(=O)CCCCCCCCCCCCCCC)Cc1cc(F)ccc1F` (stereo not drawn) [drawing 62], the IC50 in assay [1] is greater than 50000 nM; in assay [2], greater than 50 µM. On the same counts, the results for `CCCCCCCCCCCCCCCC(=O)OC(C(=O)NCC(C)(C)CNC(=O)CC(N)Cc1cc(F)ccc1F)C(N)Cc1ccccc1` (stereo not drawn) [drawing 43] are 60 nM and 0.03 µM. For `CCCCCCCC(=O)OC(C(=O)N(C)CCCNC(=O)CC(N)Cc1cc(F)ccc1F)C(N)Cc1ccccc1` (stereo not drawn) [drawing 44], the values for the half-maximal inhibitory concentration (IC50) in assay [1] and in assay [2] were 20 nM and greater than 50 µM, respectively. For `CC(C)(NC(=O)CC(N)Cc1ccccc1)C(C)(C)NC(=O)C(O)C(N)Cc1ccccc1` (stereo not drawn) [drawing 20] the same measures were 13800 nM and 16.7 µM.

Consider `CC(C)(CNCC(N)Cc1cc(F)ccc1F)CNC(=O)C(O)C(N)Cc1ccccc1` (stereo not drawn) [drawing 70], for which the IC50 in assay [1] amounted to 30000 nM; in assay [2], 0.33 µM. On the same counts, the results for `CCCCCCCCCCCC(=O)OC(C(=O)NCC(C)(C)CNC(=O)CC(N)Cc1cc(F)ccc1F)C(N)Cc1ccccc1` (stereo not drawn) [drawing 47] are 600 nM and 18 µM. Regarding `NC(CC(=O)NCCNC(=O)C(O)C(N)Cc1ccccc1)Cc1cc(F)ccc1F` (stereo not drawn) [drawing 15], the half-maximal inhibitory concentration (IC50) in assay [1] is 160 nM; in assay [2], 5.6 µM. On the same counts, the results for `NC(CC(=O)NCCNC(=O)C(O)C(N)Cc1ccccc1)Cc1ccccc1` (stereo not drawn) [drawing 14] are 800 nM and 2.9 µM.

As to `NC(CC(=O)NCCNC(=O)CC(O)C(N)Cc1ccccc1)Cc1ccccc1` (stereo not drawn) [drawing 18], the IC50 in assay [1] was 1000 nM; in assay [2], greater than 50 µM. For `NC(CNC(=O)c1cccc(NC(=O)C(O)C(N)Cc2ccc(-c3ccsc3)cc2)c1)Cc1cc(F)ccc1F` (stereo not drawn) [drawing 78] the same measures were 460 nM and 0.0005 µM. On the same counts, the results for `CC(C)(CNC(=O)CC(N)Cc1cc(F)ccc1F)CNC(=O)C(O)C(N)Cc1ccc(O)cc1` (stereo not drawn) [drawing 73] are 4600 nM and greater than 50 µM. For `NC(CC(=O)NCCNC(=O)C(O)C(N)Cc1ccccc1)Cc1ccc2ccccc2c1` (stereo not drawn) [drawing 13] the same measures were 28000 nM and 1.5 µM. Turning to `CN(CCCNC(=O)CC(N)Cc1cc(F)ccc1F)C(=O)C(O)C(N)Cc1ccccc1` (stereo not drawn) [drawing 40], the values for the IC50 in assay [1] and in assay [2] were 200 nM and 15.4 µM, respectively. With `CCCCCCCCCCCCCCCCOC(C(=O)NCC(C)(C)CNC(=O)CC(N)Cc1cc(F)ccc1F)C(N)Cc1ccccc1` (stereo not drawn), the results for the half-inhibitory concentration (IC50) in assay [1] and in assay [2] were 25000 nM and greater than 50 µM, respectively. On the same counts, the results for `CC(C)(CNC(=O)CC(N)Cc1cc(F)ccc1F)CNC(=O)C(O)C(N)Cc1ccc(-c2cccnc2)cc1` (stereo not drawn) [drawing 76] are 96 nM and 0.0008 µM. For `CC(C)(CNC(=O)CC(N)Cc1cc(F)ccc1F)CNC(=O)C(O)C(N)Cc1ccc(-c2cncnc2)cc1` (stereo not drawn) [drawing 77] the same measures were 100 nM and 0.01 µM. On the same counts, the results for `CC(C)(CNC(=O)CC(N)Cc1ccccc1)CNC(=O)C(O)C(N)Cc1ccccc1` (stereo not drawn) [drawing 21] are 2000 nM and 0.18 µM.
